{"source": "patent US7678386B2", "about": "“Liposomes coated with selected antibodies that bind to aminophospholipids” (Board of Regents the University of Texas, priority 2002, dated 2010)", "key": {"[1]": {"experiment": "Anti-PS ELISA on PS-coated plates", "type": "binding", "procedure": "The anti-PS ELISA used in the present studies is conducted as follows. Unless particular differences are specified, this is the format of the ELISA used throughout the studies of the present application.\nThe ELISA is exemplified using the antigen PS (P-6641 25 mg 10 mg/ml (solvent is Chloroform:MeOH 95:5) in 2.5 ml bottle). Other phospholipids can be used using the same protocol. The PS (or other phospholipids) stock solution should be aliquoted and stored in an airtight container at −30° C. The preferred 96 well plates are Dynatech U bottom Immulon 1 (from Dynatech Labs. Cat# 011-010-3550).\nThe standard blocking buffer used herein is 10% bovine serum dissolved in PBS. Other blocking solutions are suitable, but any detergents should be excluded from block and wash solutions. The primary antibody is the test sample or admixture. The preferred secondary antibody is goat, anti-mouse IgG-HRP. The developing solutions are: 10 ml of 0.2 M Na2PO4, 10 ml of 0.1 M citric acid, one 10 mg tablet of OPD, and 10 μl of hydrogen peroxide. The stop solution is 0.18 M H2SO4.\n(§1) The protocol entails coating 96-well plate with PS as follows: dilute the PS stock solution in n-hexane to 10 μg/ml and mix well. Add 50 μl to each well and allow this to evaporate for one hour. Add 200 μl of 10% serum (or other blocking buffer) to each well, cover and maintain at room temperature for 2 hours or overnight at 4° C. Wash the plate three times with PBS. Add the primary antibody (dilute in blocking buffer) and incubate for 2 hours at 37° C. Wash three times with PBS. Add 100 μl/well of secondary antibody (typically goat. anti-mouse IgG-HRP or other appropriate secondary antibody) and incubate for 1 hour at 37° C. Wash the plate three times with PBS. Develop the ELISA by adding 100 μl of developing solution to each of the wells, develop for 10 minutes, then add 100 μl of stop solution to each plate and read the O.D. at 490 nm."}, "[2]": {"experiment": "ELISA on plates coated with phospholipids (specificity)", "type": "binding", "settings": "identical antibody concentration", "procedure": "as §1\nThe specificity of the antibodies was determined by ELISA using plates coated with the following phospholipids: PS, phosphatidylserine; PE, phosphatidylethanolamine; PI, phosphatidylinositol: PA. phosphatidic acid; PG, phosphatidylglycerol; PC, phosphatidylcholine: CL, cardiolipin; and SM, sphingomyelin.\nThe 1B9, 2G7 and 7C5 antibodies behave essentially the same. These antibodies recognize only PS and require serum or serum proteins for binding to PS. […]"}, "[3]": {"tested_on": "blood vessels of L540 tumors", "experiment": "Annexin V inhibition of coaguligand-induced thrombosis in vivo", "parameters": "species or system mouse", "procedure": "The ability of Annexin V to inhibit coaguligand-induced thrombosis in vivo was examined in L540 Hodgkin-bearing SCID mice. Tumors were grown in mice and two mice per group (tumor size 0.5 cm in diameter) were injected intravenously via the tail vein with one of the following reagents: a) saline; b) 100 μg of Annexin V; c) 40 μg of anti-VCAM-1•tTF; d) 100 μg of Annexin V followed 2 hours later by 40 μg of anti-VCAM-1•tTF.\nFour hours after the last injection mice were anesthetized and perfused with heparinized saline. Tumors were removed, fixed with 4% formalin, paraffin-embedded and stained with hematoxylene-eosin. The number of thrombosed and non-thrombosed blood vessels was counted and the percentage of thrombosis was calculated."}, "[4]": {"experiment": "Reactivity with plastic-immobilized phospholipids (ELISA), panel", "type": "binding", "procedure": "(§2) Phospholipids were dissolved in n-hexane to a concentration of 50 μg/ml. 100 μl of this solution was added to wells of 96-well microtiter plates. After evaporation of the solvent in air, the plates were blocked for 2 h with 10% fetal bovine serum diluted in DPBS containing 2 mM Ca^2+ (binding buffer).\n(§3) 9D2 antibody or annexin V were diluted in the binding buffer in the presence of 10% serum at an initial concentration of 6.7 nM. Serial two-fold dilutions were prepared in the plates (100 μl per well). The plates were then incubated for 2 h at room temperature. The plates were washed and the 9D2 and annexin V were detected by goat anti-rat IgM conjugated to HRP and rabbit anti-human annexin V followed by goat anti-rabbit IgG conjugated to HRP (all diluted 1:1000), respectively. Secondary reagents were detected by using chromogenic substrate OPD followed by reading plates at 490 nm using a microplate reader (Molecular Devices, Palo Alto, Calif.).\n(§4) The specificity of the 9D2 antibody binding was validated by using control rat IgM of irrelevant specificity (Pharmingen, San Diego, Calif.). The specificity of annexin V binding to phospholipids, which is Ca^2+-dependent, was determined by diluting the reagent in the DPBS containing 5 mM EDTA. Additional negative controls consisted of washing the plates with the binding buffer containing 0.2% of a detergent Tween 20. This treatment extracts lipids, thus removing the phospholipid that was absorbed to plastic. Neither 9D2 antibody nor annexin V bound to detergent-washed plates."}, "[5]": {"experiment": "Competition of 9D2 and annexin V for binding to immobilized PS", "settings": "competitor in 10-fold molar excess", "procedure": "Biotinylated 9D2 antibody and annexin V were prepared by incubating purified proteins with a 10-fold molar excess of N-hydroxysuccinimide biotin (Sigma, Mo.) for 1 h at room temperature. Free biotin was removed by dialysis against PBS. […] For competition studies, […] biotinylated proteins were premixed with a 10-fold molar excess of unmodified proteins. The mixtures were then added to PS-coated plates. Bound reagents were detected by streptavidin-HRP conjugate diluted 1:1000. The binding to PS of each reagent in the absence of a competitor was taken as the 100% value."}, "[6]": {"experiment": "Reactivity with plastic-immobilized phospholipid (ELISA)", "settings": "read-out: EC50 of binding", "procedure": "as §2, §3, §4"}}}
{"substance": "Annexin V: high affinity PS binding ligand; natural ligand of anionic phospholipids and PE", "values": [{"measurement": "EC50", "setting": "[1]; MW used for conversion: IgM 900 kDa, IgG 150 kDa, Annexin V 36 kDa, read-out: EC50", "result": 2.77, "unit": "nM"}, {"measurement": "EC50", "setting": "[1]; dilutions of tissue culture supernatants", "result": 0.100, "unit": "mg/L"}, {"measurement": "Affinity vs. 3SB (-fold increased)", "setting": "[1]; from EC50 in nM", "result": "0.18 -fold"}, {"measurement": "Binding vs. 3SB (-fold increased)", "setting": "[1]; from EC50 in μg/ml", "result": "4.68 -fold"}, {"measurement": "Relative Strength of Reactivity on ELISA", "setting": "[2]", "result": "PS = PE = PI = PA > CL > PG"}, {"measurement": "coaguligand-induced intravascular thrombosis and changes in tumor cell morphology", "setting": "[3]; 100 μg Annexin V 2 hours before 40 μg coaguligand", "result": "completely abolished"}, {"measurement": "tumor morphology", "setting": "[3]; 100 μg Annexin V alone", "result": "did not alter tumor morphology"}, {"measurement": "binding to anionic phospholipids in the presence of 5 mM EDTA", "setting": "[4]", "result": "abolished"}, {"measurement": "binding to heparin, heparan sulfate or double or single stranded DNA", "setting": "[4]", "result": "did not bind detectably"}, {"measurement": "order of strength of binding to phospholipids in ELISA", "setting": "[4]; 10% serum", "result": "PI>PS=PE=PA=CL>PG"}, {"measurement": "Binding (% Control) of biotinylated 9D2 to PS", "setting": "[5]", "result": 93, "unit": "%"}, {"measurement": "Binding (% Control) of biotinylated annexin V to PS", "setting": "[5]", "result": 8, "unit": "%"}, {"measurement": "EC50", "setting": "[6]; CL", "result": 0.13, "unit": "nM"}, {"measurement": "EC50", "setting": "[6]; PA", "result": 0.1, "unit": "nM"}, {"measurement": "EC50", "setting": "[6]; PC", "result": "> 8", "unit": "nM"}, {"measurement": "EC50", "setting": "[6]; PE", "result": 0.1, "unit": "nM"}, {"measurement": "EC50", "setting": "[6]; PG", "result": 0.25, "unit": "nM"}, {"measurement": "EC50", "setting": "[6]; PI", "result": 0.05, "unit": "nM"}, {"measurement": "EC50", "setting": "[6]; PS", "result": 0.1, "unit": "nM"}, {"measurement": "EC50", "setting": "[6]; SM", "result": "> 8", "unit": "nM"}]}
